The target in one assay is TRPML1 (Homo sapiens, UniProt Q9GZU1). Description: Fluorescent TRPML1 assay (Fluo4-AM calcium fluorescence in doxycycline-induced HEK-293 Trex cells). The format is cell-based. On the procedure: (§1) HEK-293 Trex cells were stably transfected with a construct consisting of the human coding sequence for TRPML1 cloned into the […] plasmid pCDNA5 T/O. Mutations were introduced into the TRPML1 sequence to facilitate expression on the cell surface (Silvia Vergarajauregui, Rosa Puertollano, Traffic. 2006 March; 7(3): 337-353). Briefly, the cells are cultured in 150 mm round tissue culture dishes containing 20 mL of media. The day before the assay the cells are rinsed with DPBS-Ca—Mg and then treated briefly with Trypsin-EDTA. The Trypsin-EDTA is diluted with growth media, and cells are counted. 38×10^6 cells are re-plated into 150 mm round tissue culture dishes in media containing 0.5 ug/mL doxycycline to induce expression of hTRPML1.
(§2) The day of the experiment cells are lifted from the plates as above and collected by centrifugation. The cells are then suspended in dye loading buffer consisting of Ringer's solution supplemented with 0.1% Pluronic Acid and 1 micromolar Fluo4-AM dye. Cells are loaded for ˜60 minutes in the dark with occasional mixing. The cells are collected by centrifugation, the loading media aspirated, and the cells resuspended in 25 mL Ringer's solution and incubated ˜60 minutes in the dark. The cells are again collected by centrifugation, rinsed in Ringer's Solution and resuspended to […] in modified Ringer's solution containing 10 mM calcium.
(§3) Compounds are dissolved to a concentration of 10 millimolar with DMSO. Compound plates are created by dispensing compounds into 384 well black wall clear bottom plates (Greiner 781091). Positive and negative controls are included on each plate. Typically, different amounts of each compound are tested ranging from 100 nanoMoles (20 micromolar final concentration) decreasing in half-log steps to 31 picoMoles (6 nanomolar final concentration). Each concentration is typically tested in triplicate.
(§4) 50 microliters of dye-loaded cells are dispensed into each well of the compound assay plate created above. The fluorescence in each well is then determined with an excitation wavelength of 480 nm and an emission wavelength of 540 nm using either a Molecular Devices SpectraMax multimode plate reader or a Hamamatsu FDSS/uCell plate imager.
(§5) The resulting fluorescence for each well is exported as an ascii file and loaded into our LIMS for analysis. The percent activity of each compound at each concentration is determined by comparison to the positive and negative control wells included in each plate.
(§6) EC50 values were calculated using a non-linear regression of Prism. In the table, “A” indicates an EC50 of less than 100 nM, “B” indicates an EC50 range from 100 nM to 500 nM; “C” indicates an EC50 range from 500 nM to 2 μM; and “D” indicates an EC50 greater than 2 μM.

A further assay has as its target T1, TRPML3 (Homo sapiens, UniProt Q8TDD5).
T1 construct: expressed in transfected cells
T1 sequence (Q8TDD5 1-553): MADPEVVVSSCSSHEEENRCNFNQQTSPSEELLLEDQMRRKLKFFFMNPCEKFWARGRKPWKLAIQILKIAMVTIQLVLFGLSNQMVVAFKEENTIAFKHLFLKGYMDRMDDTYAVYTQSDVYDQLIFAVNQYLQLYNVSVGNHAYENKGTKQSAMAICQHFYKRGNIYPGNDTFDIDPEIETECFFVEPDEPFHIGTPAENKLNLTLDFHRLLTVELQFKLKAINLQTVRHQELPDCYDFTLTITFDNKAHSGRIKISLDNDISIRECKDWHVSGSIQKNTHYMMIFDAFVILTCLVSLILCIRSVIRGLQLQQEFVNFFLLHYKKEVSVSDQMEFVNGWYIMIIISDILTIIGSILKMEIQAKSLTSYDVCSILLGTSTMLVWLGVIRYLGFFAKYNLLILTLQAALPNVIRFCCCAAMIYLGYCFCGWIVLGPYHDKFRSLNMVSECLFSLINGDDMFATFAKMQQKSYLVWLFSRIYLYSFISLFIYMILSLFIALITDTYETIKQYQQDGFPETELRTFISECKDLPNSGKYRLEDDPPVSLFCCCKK
Description: Fluorescent TRPML3 assay (performed as for TRPML1, substituting the TRPML3 subtype). The format is cell-based. On the procedure:
as §1, §2, §3, §4, §5
TRPML2 and TRPML3 Assays Assays for TRPML2 and TRPML3 were performed as above for TRPML1, by substituting the appropriate TRPML2 or TRPML3 subtype for the TRPML1.
as §6

Like-named read-outs stand apart in the source and are kept apart here. Where only a bound is given, the exact number is not on record here.

TRPML1, sequence (Q9GZU1 whole entry L15A/L16A/L577A/L578A, form open): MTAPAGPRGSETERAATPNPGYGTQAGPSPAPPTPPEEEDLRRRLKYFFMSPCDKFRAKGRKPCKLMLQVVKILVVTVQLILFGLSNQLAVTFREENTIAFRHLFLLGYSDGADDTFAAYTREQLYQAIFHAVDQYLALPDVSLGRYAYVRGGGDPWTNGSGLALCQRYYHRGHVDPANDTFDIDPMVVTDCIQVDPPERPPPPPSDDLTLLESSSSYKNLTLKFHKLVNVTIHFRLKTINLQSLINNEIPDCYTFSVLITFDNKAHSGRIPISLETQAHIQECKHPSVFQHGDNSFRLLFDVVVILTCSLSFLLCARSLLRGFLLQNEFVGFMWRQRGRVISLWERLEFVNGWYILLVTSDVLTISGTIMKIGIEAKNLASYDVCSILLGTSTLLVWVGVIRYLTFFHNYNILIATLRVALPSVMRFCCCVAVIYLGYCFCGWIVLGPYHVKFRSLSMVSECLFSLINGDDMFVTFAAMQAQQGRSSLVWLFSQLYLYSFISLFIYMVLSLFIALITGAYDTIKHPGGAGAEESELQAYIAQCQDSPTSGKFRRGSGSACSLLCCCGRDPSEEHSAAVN

Regarding `CC(C)(C)OC(=O)N1CCN(c2ncnc3c2c(C2CC2)cn3-c2cc(F)cc(F)c2)C[C@@H]1C(F)F` (single isomer, unassigned) [Compound 315], the EC50 on TRPML1 (fluorescent calcium assay) and on TRPML3 (fluorescent calcium assay) was 500 to 2000 nM throughout.

Consider `C[C@@H]1CN(c2ncnc3c2c(C(F)(F)F)cn3[C@H]2CCCC(F)(F)C2)[C@@H](C)CN1C(=O)OC(C)(C)C` (single isomer, unassigned) [Compound 713], for which the EC50 (as a rule, the concentration that produces a half-maximal response) on TRPML1 was 500 to 2000 nM; on TRPML3 it was 100 to 500 nM.

For the compound `CCOC(=O)N1C[C@H](C)N(c2ncnc3c2c(-c2cnccn2)cn3-c2cccc(Cl)c2)C[C@H]1C` [Compound 125, Ethyl (2R,5S)-4-(7-(3-chlorophenyl)-5-(pyrazin-2-yl)-7H-pyrrolo[2,3-d]pyrimidin-4-yl)-2,5-dimethylpiperazine-1-carboxylate], the half-maximal effective concentration (EC50) on TRPML1 (fluorescent calcium assay) and on TRPML3 (fluorescent calcium assay) was 500 to 2000 nM each time.

On to `CCOC(=O)N1CCN(c2ncnc3c2c(-c2ccccc2F)cn3-c2cncc(OC)c2)[C@@H](C)C1` [Compound 126, ethyl (S)-4-(5-(2-fluorophenyl)-7-(5-methoxypyridin-3-yl)-7H-pyrrolo[2,3-d]pyrimidin-4-yl)-3-methylpiperazine-1-carboxylate], for which the EC50 on TRPML1 (fluorescent calcium assay) and at TRPML3 (fluorescent calcium assay) was 500 to 2000 nM in each case.

Take `CCOC(=O)N1CCN(c2ncnc3c2c(C2CC2)cn3-c2cncc(C)c2)[C@@H](C)C1` [Compound 153, ethyl (S)-4-(5-cyclopropyl-7-(5-methylpyridin-3-yl)-7H-pyrrolo[2,3-d]pyrimidin-4-yl)-3-methylpiperazine-1-carboxylate]: the EC50 on TRPML1 (fluorescent calcium assay) and on TRPML3 (fluorescent calcium assay) was greater than 2000 nM throughout.

With `CCOC(=O)N1C[C@H](C)N(c2ncnc3c2c(C2CC2)cn3-c2cccc(Cl)c2)[C@@H](C)C1` [Compound 189, ethyl (3S,5S)-4-(7-(3-chlorophenyl)-5-cyclopropyl-7H-pyrrolo[2,3-d]pyrimidin-4-yl)-3,5-dimethylpiperazine-1-carboxylate], the EC50 on TRPML1 (fluorescent calcium assay) and on TRPML3 (fluorescent calcium assay) was 100 to 500 nM throughout.

Take `C[C@@H]1CN(C(=O)OC(C)(C)C)CCN1c1ncnc2c1c(N1CCOCC1)cn2-c1cc(F)cc(F)c1` [Compound 227, tert-Butyl (R)-4-(7-(3,5-difluorophenyl)-5-morpholino-7H-pyrrolo[2,3-d]pyrimidin-4-yl)-3-methylpiperazine-1-carboxylate]: the EC50 on TRPML1 (fluorescent calcium assay) was 500 to 2000 nM; on TRPML3 (fluorescent calcium assay), 100 to 500 nM.

For `C[C@@H]1CN(c2ncnc3c2c(N2CCC[C@H]2CO)cn3-c2cccc(Cl)c2)CCN1C(=O)OC(C)(C)C` [Compound 283, tert-butyl (R)-4-(7-(3-chlorophenyl)-5-((S)-2-(hydroxymethyl)pyrrolidin-1-yl)-7H-pyrrolo[2,3-d]pyrimidin-4-yl)-2-methylpiperazine-1-carboxylate], the EC50 on TRPML1 (fluorescent calcium assay) was greater than 2000 nM; at TRPML3 (fluorescent calcium assay), 100 to 500 nM.

Turning to `C[C@H]1CCCN1c1cn(-c2cccc(Cl)c2)c2ncnc(N3CCN(C(=O)OC(C)(C)C)C[C@@H]3C)c12` [Compound 316, tert-butyl (S)-4-(7-(3-chlorophenyl)-5-((S)-2-methylpyrrolidin-1-yl)-7H-pyrrolo[2,3-d]pyrimidin-4-yl)-3-methylpiperazine-1-carboxylate], the EC50 is 500 to 2000 nM on TRPML1 (fluorescent calcium assay) and less than 100 nM at TRPML3 (fluorescent calcium assay).

Turning to `C[C@H]1CN(C(=O)OC(C)(C)C)CCN1c1ncnc2c1c(N1CCC(C)(C)C1)cn2-c1cccc(C#N)c1` [Compound 358, tert-Butyl (S)-4-(7-(3-cyanophenyl)-5-(3,3-dimethylpyrrolidin-1-yl)-7H-pyrrolo[2,3-d]pyrimidin-4-yl)-3-methylpiperazine-1-carboxylate], the EC50 on TRPML1 (fluorescent calcium assay) is less than 100 nM.

As for `C[C@H]1CN(C(=O)OC(C)(C)C(F)(F)F)CCN1c1ncnc2c1c(N1CCCC1)cn2C1CCCCC1` [Compound 359, 1,1,1-trifluoro-2-methylpropan-2-yl (S)-4-(7-cyclohexyl-5-(pyrrolidin-1-yl)-7H-pyrrolo[2,3-d]pyrimidin-4-yl)-3-methylpiperazine-1-carboxylate], the EC50 at TRPML1 (fluorescent calcium assay) was 100 to 500 nM.

As to `C[C@H]1CN(C(=O)OC(C)(C)C)CCN1c1ncnc2c1c(N1CCCC1)cn2C1CCOCC1` [Compound 360, tert-butyl (S)-3-methyl-4-(5-(pyrrolidin-1-yl)-7-(tetrahydro-2H-pyran-4-yl)-7H-pyrrolo[2,3-d]pyrimidin-4-yl)piperazine-1-carboxylate], the EC50 on TRPML1 (fluorescent calcium assay) was 500 to 2000 nM.

On to `C[C@H]1CN(C(=O)OC(C)(C)C)CCN1c1ncnc2c1c(C1CC1)cn2[C@@H]1C[C@@H]2CC[C@H]1C2` [Compound 361, tert-butyl (S)-4-(7-((1S,2R,4R)-bicyclo[2.2.1]heptan-2-yl)-5-cyclopropyl-7H-pyrrolo[2,3-d]pyrimidin-4-yl)-3-methylpiperazine-1-carboxylate], for which, on TRPML1 (fluorescent calcium assay), the EC50 was less than 100 nM.

On to `C[C@H]1CN(C(=O)OCC(F)(F)F)CCN1c1ncnc2c1c(-c1ccccn1)cn2-c1cc(C#N)ccn1` [Compound 372, 2,2,2-trifluoroethyl (S)-4-(7-(4-cyanopyridin-2-yl)-5-(pyridin-2-yl)-7H-pyrrolo[2,3-d]pyrimidin-4-yl)-3-methylpiperazine-1-carboxylate], for which the EC50 on TRPML1 (fluorescent calcium assay) and on TRPML3 (fluorescent calcium assay) was 100 to 500 nM throughout.

For the compound `N#Cc1ccnc(-n2cc(-c3ccccc3F)c3c(N4CCN(C(=O)OCC(F)(F)F)CC4)ncnc32)c1` [Compound 373, 2,2,2-trifluoroethyl 4-(7-(4-cyanopyridin-2-yl)-5-(2-fluorophenyl)-7H-pyrrolo[2,3-d]pyrimidin-4-yl)piperazine-1-carboxylate], the results for the EC50 on TRPML1 (fluorescent calcium assay) and at TRPML3 (fluorescent calcium assay) were 100 to 500 nM and less than 100 nM, respectively.

As for `C[C@H]1CN(C(=O)OC(C)(C)C)CCN1c1ncnc2c1c(N1CCOCC1)cn2-c1cc(C#N)ccn1` [Compound 380, tert-butyl (S)-4-(7-(4-cyanopyridin-2-yl)-5-morpholino-7H-pyrrolo[2,3-d]pyrimidin-4-yl)-3-methylpiperazine-1-carboxylate], the EC50 at TRPML1 (fluorescent calcium assay) is 100 to 500 nM; on TRPML3 (fluorescent calcium assay), 500 to 2000 nM.

For the compound `C[C@H]1CN(C(=O)OC(C)(C)C)CCN1c1ncnc2c1c(C1CC1)cn2C1CCCC(F)(F)C1` (stereo partly drawn) [Compound 382, tert-butyl (3S)-4-(5-cyclopropyl-7-(3,3-difluorocyclohexyl)-7H-pyrrolo[2,3-d]pyrimidin-4-yl)-3-methylpiperazine-1-carboxylate], the EC50 at TRPML1 (fluorescent calcium assay) and at TRPML3 (fluorescent calcium assay) was 500 to 2000 nM throughout.

Regarding `C[C@H]1CN(C(=O)OC(C)(C)C)CCN1c1ncnc2c1c(N1CCCC1)cn2C12CCC(CC1)CC2` [Compound 383, tert-butyl (S)-4-(7-(bicyclo[2.2.2]octan-1-yl)-5-(pyrrolidin-1-yl)-7H-pyrrolo[2,3-d]pyrimidin-4-yl)-3-methylpiperazine-1-carboxylate], the EC50 on TRPML1 (fluorescent calcium assay) is 100 to 500 nM; at TRPML3 (fluorescent calcium assay), greater than 2000 nM.

`CC(C)(OC(=O)N1CCN(c2ncnc3c2c(C2CC2)cn3-c2cc(C#N)ccn2)CC1)C(F)(F)F` [Compound 385, 1,1,1-trifluoro-2-methylpropan-2-yl 4-(7-(4-cyanopyridin-2-yl)-5-cyclopropyl-7H-pyrrolo[2,3-d]pyrimidin-4-yl)piperazine-1-carboxylate]: the EC50 on TRPML1 (fluorescent calcium assay) and on TRPML3 (fluorescent calcium assay) was 100 to 500 nM each time.

On to `CC(C)OC(=O)N1CCN(c2ncnc3c2c(C2CC2)cn3-c2cc(C#N)ccn2)[C@@H](C)C1` [Compound 386, isopropyl (S)-4-(7-(4-cyanopyridin-2-yl)-5-cyclopropyl-7H-pyrrolo[2,3-d]pyrimidin-4-yl)-3-methylpiperazine-1-carboxylate], for which the values for the half-maximal effective concentration (EC50) on TRPML1 (fluorescent calcium assay) and at TRPML3 (fluorescent calcium assay) were less than 100 nM and 100 to 500 nM, respectively.
